ChEMBL document CHEMBL6087390, “Pyridine and Pyrimidine hybrids as privileged scaffolds in antimalarial drug discovery: A recent development” (Bioorg Med Chem Lett, 2024)
In brackets after ≈: the same amount, converted by molar mass. Blank lines part the entries; values can stand above or below the molecule they belong to.

What was measured:
[1] = tested on: Plasmodium falciparum; experiment: Antiplasmodial activity against Plasmodium falciparum W2 assessed as reduction in parasite growth after 72 hrs by SYBR Green fluorescence assay; format: functional, organism-based; conditions: W2, 72 h
[2] = tested on: HepG2; experiment: Cytotoxicity against human HepG2 cells assessed as reduction in cell viability measured for 48 hrs by SRB assay; format: functional
[3] = tested on: Plasmodium falciparum; experiment: Antimalarial activity against Plasmodium falciparum 3D7 assessed as inhibition of parasite growth incubated for 72 hrs by SYBR Green I staining based analysis; format: functional, organism-based; conditions: 3D7, 72 h
[4] = tested on: Plasmodium falciparum; experiment: Antiplasmodial activity against Plasmodium falciparum NF54 assessed as reduction in parasite growth; format: functional, organism-based
[5] = tested on: Plasmodium falciparum; experiment: Antimalarial activity against Plasmodium falciparum K1 assessed as parasite growth inhibition; format: functional, organism-based
[6] = tested on: Plasmodium falciparum; experiment: Antimalarial activity against […] Plasmodium falciparum NF54 assessed as inhibition of parasite growth incubated for 48 hrs by SYBR green dye based flow cytometry; format: functional, organism-based; conditions: NF54, 48 h
[7] = tested on: Plasmodium falciparum; experiment: Antiplasmodial activity against Plasmodium falciparum Dd2 assessed as reduction in parasite growth measured after 72 hrs by SYBR Green 1 staining based assay; format: functional, organism-based; conditions: Dd2, 72 h
[8] = tested on: HepG2; experiment: Cytotoxicity against human HepG2 cells assessed as reduction in cell growth; format: functional
[9] = Cytotoxicity against african green monkey Vero cells assessed as cell viability measured after 48 hrs by MTT assay; format: toxicity, cell-based, Chlorocebus sabaeus
[10] = Cytotoxicity against African green monkey Vero cells assessed as reduction in cell growth measured after 72 hrs by MTT assay; format: toxicity, cell-based; conditions: African green monkey (Chlorocebus sabaeus)
[11] = tested on: Plasmodium falciparum; experiment: Antimalarial activity against Plasmodium falciparum D6 assessed as reduction in parasite growth; format: functional, organism-based
[12] = tested on: Plasmodium falciparum; experiment: Antimalarial activity against Plasmodium falciparum K1 assessed as reduction in parasite growth incubated for 48 hrs by SYBR Green I staining based analysis; format: functional, organism-based; conditions: K1, 48 h
[13] = tested on: Plasmodium falciparum; experiment: Antiplasmodial activity against CQ-sensitive Plasmodium falciparum NF54; format: functional, organism-based
[14] = tested on: Plasmodium falciparum; experiment: Antimalarial activity against Plasmodium falciparum 3D7 assessed as inhibition of parasite growth measured after 72 hrs by SYBR Green I staining based analysis; format: functional, organism-based; conditions: 3D7, 72 h
[15] = tested on: Plasmodium falciparum; experiment: Antiparasitic activity against Plasmodium falciparum; format: functional, organism-based
[16] = tested on: Plasmodium falciparum; experiment: microbe, parasite or virus in culture; conditions: 3D7, 48 h
[17] = tested on: Plasmodium falciparum; experiment: microbe, parasite or virus in culture; conditions: W2
[18] = tested on: Plasmodium falciparum; experiment: Antimalarial activity against Plasmodium falciparum Dd2 assessed as reduction in parasite growth; format: functional, organism-based
[19] = tested on: Plasmodium falciparum; experiment: Antimalarial activity against Plasmodium falciparum NF54; format: functional, organism-based
[20] = Cytotoxicity against human HFF cells assessed as inhibition of cell viability measured after 48 hrs by MTT assay; format: toxicity, cell-based
[21] = tested on: Plasmodium falciparum; experiment: microbe, parasite or virus in culture; conditions: W2; remark: listed apart in the source
[22] = tested on: Plasmodium falciparum; experiment: Antiplasmodial activity against multidrug resistant Plasmodium falciparum K1 assessed as reduction in parasite growth by [3H]-hypoxanthine incorporation assay; format: functional, organism-based
[23] = tested on: HepG2; experiment: Cytotoxicity against human HepG2 cells assessed as reduction in cell viability measured for 48 hrs by MTT assay; format: functional
[24] = tested on: Plasmodium falciparum; experiment: Antiparasitic activity against Plasmodium falciparum 3D7 assessed as reduction in parasite growth; format: functional, organism-based
[25] = tested on: HepG2; experiment: Cytotoxicity against human HepG2 cells assessed as reduction in cell viability incubated for 72 hrs by MTT assay; format: functional
[26] = tested on: Plasmodium falciparum; experiment: microbe, parasite or virus in culture; conditions: 3D7, 72 h

SMILES: COc1ccc(NC(=O)C(c2ccc(Cl)c(Cl)c2)N2CCN(c3ncnc4sc5c(c34)CCCC5)CC2)cc1 (centres undefined)
IC50 [1]: 60 nM

SMILES: Cc1ccccc1-n1nnnc1C(c1cncnc1)N(Cc1cccc(C(F)(F)F)c1)C1CC1 (centres undefined)
CC50 [2]: 37000 nM
EC50 [3]: 400 nM

SMILES: Oc1ccc(-c2cc(-c3ccc(O)cc3)nc(NCCCCNc3ccnc4cc(Cl)ccc34)n2)cc1
IC50 [4]: 320 nM

SMILES: CC1(C)c2nc(-c3ccc(F)cc3)c(Br)n2CCN1C(=O)Cn1cc(-c2ccnc(-c3ccccn3)c2)nn1
IC50 [5]: 3900 nM
IC50 [6]: 6800 nM

SMILES: CC(=O)N(Cc1cccc(C(F)(F)F)c1)C(c1cncnc1)c1nnnn1-c1ccccc1C (centres undefined)
EC50 [7]: > 30000 nM
CC50 [2]: > 30000 nM
EC50 [3]: 15000 nM

SMILES: CCN(CC)CCCC(C)Nc1ccnc2cc(Cl)ccc12 (centres undefined) [CHLOROQUINE]
CC50 [8]: 45400 nM
CC50 at 48 h ([9]; chlorocebus sabaeus, time 48 hrs): 393000 nM
IC50 at 72 h [10]: 907000 nM

SMILES: Cc1cc(N(CCNc2ccnc3cc(Cl)ccc23)Cc2ccccn2)nc(N2CCN(C)CC2)n1
IC50 [11]: 20 nM

SMILES: Cc1ncc(C(c2nnnn2C2CC2)N(C2CC2)C2(c3cccc(C(F)(F)F)c3)CC2)cn1 (centres undefined)
EC50 [7]: 21000 nM
CC50 [2]: > 30000 nM
EC50 [3]: > 30000 nM

SMILES: Oc1ccc(-c2cc(-c3ccc(O)c(O)c3)nc(NCCCCNc3ccnc4cc(Cl)ccc34)n2)cc1
IC50 [4]: 1620 nM

SMILES: COC(=O)C1=C(Cn2cc(COc3cc(C(F)(F)F)nc4c(C(F)(F)F)cccc34)nn2)NC(=O)NC1c1ccc(OC)cc1 (centres undefined)
IC50 [12]: > 5000 nM

IC50 [13]: 5500 nM
SMILES: CC1(C)[C@@H](O)CC[C@]2(C)[C@H]3C(=O)CC4[C@@H]5C[C@@](C)(C(=O)OCc6cn(-c7ccc(C#N)nc7)nn6)CC[C@]5(C)CC[C@@]4(C)[C@]3(C)CC[C@@H]12 (some centres undefined)
CC50 [8]: 290000 nM

SMILES: Cc1ccccc1-n1nnnc1C(c1cccnc1)N(Cc1cc(C(F)(F)F)ccc1F)C1CC1 (centres undefined)
EC50 [14]: 600 nM

SMILES: COc1ccc(NC(=O)C(c2ccc(C(F)(F)F)cc2)N2CCN(c3ncnc4sc5c(c34)CCCC5)CC2)cc1 (centres undefined)
IC50 [1]: 50 nM

SMILES: C=C[C@H]1CN2CC[C@H]1C[C@H]2[C@H](O)c1ccnc2ccc(OC)cc12 [QUININE]
IC50 [15]: 2710 nM
IC50 [16]: 0.26 µg/mL (≈ 0.801 µM)
IC50 [17]: 830 nM

IC50 [19]: 40 nM
SMILES: Cc1nc(OCc2cn(CCCNc3ccnc4cc(Cl)ccc34)nn2)nc(-c2ccc([N+](=O)[O-])cc2)c1C(=O)OC(C)C
IC50 [18]: 4500 nM

SMILES: Cc1ncc(Cn2cc(CCOC(=O)c3cccc(Cl)c3)nn2)c(N)n1
IC50 at 48 h [20]: > 200000 nM

IC50 [21]: 90 nM
SMILES: CCN1CCN(c2nc(C)cc(N(CCNc3ccnc4cc(Cl)ccc34)Cc3ccccn3)n2)CC1
IC50 [11]: 20 nM

SMILES: COc1ccc(-c2cc(-c3ccc(OC)c(OC)c3)nc(N3CCN(c4ccnc5cc(Cl)ccc45)CC3)n2)cc1OC
IC50 [4]: 6170 nM

SMILES: FC(F)(F)c1cc(Nc2ncccn2)c2cccc(C(F)(F)F)c2n1
IC50 at 72 h [10]: > 559000 nM

SMILES: OC(c1cc(C(F)(F)F)nc2c(C(F)(F)F)cccc12)C1CCCCN1 (centres undefined) [MEFLOQUINE]
IC50 [21]: 10 nM
IC50 at 72 h [10]: 15000 nM

SMILES: CCN(CC)Cc1cc(Nc2ccnc3cc(Cl)ccc23)ccc1O [AMODIAQUINE]
IC50 [21]: 60 nM
IC50 [17]: 70 nM

SMILES: Clc1ccc2c(NCCn3cc(-c4ccccn4)nn3)ccnc2c1
IC50 [5]: 950 nM
IC50 [6]: 620 nM

SMILES: CC(C)=CCC1=C(OCc2cn(C3CC(CO)OC3n3cc(C)c(=O)[nH]c3=O)nn2)C(=O)c2ccccc2C1=O (centres undefined)
CC50 [8]: 60700 nM

SMILES: Cc1ncc(C(C(=O)N(C)c2ccccc2C)N(Cc2cccc(C(F)(F)F)c2)C2CC2)cn1 (centres undefined)
EC50 [22]: 9800 nM
CC50 [23]: > 30000 nM
EC50 [24]: 8100 nM

SMILES: CC[C@H]1CN2CCc3cc(OC)c(OC)cc3[C@@H]2C[C@@H]1C[C@H]1NCCc2cc(OC)c(OC)cc21 [EMETINE]
IC50 [5]: 650 nM
IC50 [6]: 250 nM

SMILES: COc1ccc(-c2cc(-c3ccc(OC)cc3)nc(N3CCN(c4ccnc5cc(Cl)ccc45)CC3)n2)cc1
IC50 [4]: 7690 nM

SMILES: Cc1ccccc1-n1nnnc1C(c1cccnc1)N(C)Cc1cc(C(F)(F)F)ccc1F (centres undefined)
EC50 [14]: 1000 nM

SMILES: Cc1ccccc1-n1nnnc1C(c1cccnc1)N(Cc1cccc(C(F)(F)F)c1)C1CC1 (centres undefined)
CC50 [25]: 15000 nM

IC50 [26]: 1000 nM
SMILES: COc1ccc(NC(=O)C(c2ccc(F)c(Cl)c2)N2CCN(c3ncnc4sc5c(c34)CCCC5)CC2)cc1 (centres undefined)
IC50 [1]: 120 nM

SMILES: COc1ccc(NC(=O)C(c2ccc(C)cc2)N2CCN(c3ncnc4sc5c(c34)CCCC5)CC2)cc1 (centres undefined)
IC50 [1]: 260 nM

IC50 [19]: 180 nM
SMILES: Cc1nc(OCc2cn(CCNc3ccnc4cc(Cl)ccc34)nn2)nc(-c2ccccc2[N+](=O)[O-])c1C(=O)OC(C)C
IC50 [18]: 990 nM
IC50 at 48 h ([9]; African green monkey (Chlorocebus sabaeus)): 150000 nM

IC50 [21]: 10 nM
SMILES: Cc1cc(N2CCN(C)CC2)nc(N(CCCNc2ccnc3cc(Cl)ccc23)Cc2cccs2)n1
IC50 [11]: 30 nM

SMILES: COC(=O)C1=C(Cn2cc(COc3cc(C(F)(F)F)nc4c(C(F)(F)F)cccc34)nn2)NC(=O)NC1c1ccc(F)cc1 (centres undefined)
IC50 [12]: > 10000 nM

SMILES: CC1(C)c2nc(-c3ccc(F)cc3)c(Br)n2CCN1C(=O)Cn1cc(-c2ccccn2)nn1
IC50 [5]: 88300 nM
IC50 [6]: 73100 nM

IC50 [21]: 10 nM
SMILES: CCN1CCN(c2cc(C)nc(N(CCCNc3ccnc4cc(Cl)ccc34)Cc3cccs3)n2)CC1
IC50 [11]: 32 nM

SMILES: COc1ccc(C(F)(F)F)cc1CN(C1CC1)C(c1cccnc1)c1nnnn1-c1ccccc1C (centres undefined)
CC50 [25]: 16000 nM

SMILES: COc1ccc(NC(=O)C(c2ccc(OC(F)(F)F)cc2)N2CCN(c3ncnc4sc5c(c34)CCCC5)CC2)cc1 (centres undefined)
IC50 [1]: 60 nM

SMILES: Cc1ccccc1N(C)C(=O)C(c1cncnc1)N(Cc1cccc(C(F)(F)F)c1)C1CC1 (centres undefined)
EC50 [22]: 790 nM
CC50 [23]: > 30000 nM
EC50 [24]: 400 nM

SMILES: COC(=O)C1=C(Cn2cc(CCOc3cc(C(F)(F)F)nc4c(C(F)(F)F)cccc34)nn2)NC(=O)NC1c1ccc(F)cc1 (centres undefined)
IC50 [12]: > 5000 nM

SMILES: CN(Cc1cccc(C(F)(F)F)c1F)C(c1cccnc1)c1nnnn1C1CCCCC1 (centres undefined)
EC50 [7]: 2600 nM
EC50 [14]: 1700 nM

SMILES: COc1ccc(C(F)(F)F)cc1CN(C)C(c1cccnc1)c1nnnn1-c1ccccc1C (centres undefined)
EC50 [7]: 1700 nM
EC50 [14]: 1200 nM

SMILES: Cc1ncc(Cn2cc(CCOC(=O)c3ccccc3)nn2)c(N)n1
IC50 at 48 h [20]: > 200000 nM

SMILES: CCCN(C(c1cccnc1)c1nnnn1-c1ccccc1C)C1(c2cccc(C(F)(F)F)c2)CC1 (centres undefined)
CC50 [25]: 10000 nM

SMILES: Clc1ccc2c(NCCn3cc(-c4ccnc(-c5ccccn5)c4)nn3)ccnc2c1
IC50 [5]: 270 nM
IC50 [6]: 90 nM
